The text below walks through data of patent publication US9764014B2, “Use of toll-like receptor ligands as adjuvants to vaccination therapy for brain tumors” (Cedars-Sinai Medical Center, priority 2008, dated 2017).

One experiment relates to BMDC. The experiment is described as follows: IL-6, TNF-α and IL-12 ELISA of BMDC activated by GL26 lysate vs. TLR ligands. Conditions: FIG. 9 bottom panel, GL26 lysate plus TLR ligand. In kind it is cell-based, C57BL/6 mice. The method, then: Experiments were performed with at least three replicates per condition. As controls for these experiments the inventors utilized brain tissue lysate obtained from healthy C57BL/6 mice and untreated DCs. Furthermore, for each TLR ligand, the inventors utilized up to three different concentrations previously shown to activate dendritic cells in order to identify the best concentration for maximal activation of BMDC. […] However, TLR ligands alone consistently promote increases the dependent variables measured to a greater degree than TLR ligands with tumor lysate. However, it is likely that activation by TLR ligands alone would not prime T cells to be tumor antigen specific. […] Therefore, ELISA on BMDC treated with GL26 lysate and individual TLR ligands were performed as described above. […] TNF-α and IL-12 (FIG. 9).
Primary BMDCs were isolated from the femurs of 6-10 week old C57BL/6 mice and cultured in RPMI cell culture media with GM-CSF (1000 IU/ML) and IL-4 (1000 IU/ML). BMDCs (1×10^6 cells/ml) were maintained in cell culture at 37° C., 5% CO2 and exposed to with […] GL26 freeze-thaw lysate and either TLR2 ligand (Pam3Cys, 50 μg/ml), TLR4 ligand (LPS 50 ng/ml), or TLR9 ligand (CpG ODN 1826, 5 μM) overnight (ON). Control cells were treated with […] GL26 freeze-thaw lysate only. […]

The subject of experiment [1] is primary dendritic cells from MyD88−/− and wild-type controls. Description: ELISA for TNF-alpha in primary DC treated with LPS. In kind it is cell-based, mice. The text has this:
While the inventors provide evidence that GL26 tumor cells and TLR ligands activate DC2.4 cells, it is unknown if GL26 lysate activation is signaling through MyD88−/− and/or TRIF dependent pathways. It is possible that the GL26 tumor cell activation is signaling through TLRs or at least through downstream signaling molecules MyD88 and/or TRIF. Therefore, the inventors isolated primary dendritic cells from MyD88−/− and wild-type controls and exposed them to GL26 lysate and TLR ligand LPS. The inventors believe that LPS activation in MyD88−/− DC will not show up-regulation of TNF-alpha protein as measured by ELISA.

In the next experiment the test system is primary BMDC. The experiment is described as follows: IL-6 ELISA from primary BMDC derived from MyD88−/− and littermate controls. In kind it is cell-based, mice. Conditions: MyD88−/− DC compared to BMDC from wild-type littermate controls; LPS 100 ng/ml or 10 ng/ml with GL26 lysate. How it is done: Briefly, BMDCs were cultured in 24-well plates at 3×10^5 cells/ml and exposed to TLR ligands and lysate for 24 hours. Cell culture media were collected for ELISA analysis against IL-6, TNF-α and IL-12. Three independent experiments with at least three replicates per experiment were performed.
While the inventors provide evidence that GL26 tumor cells and TLR ligands activate primary BMDC. […] It is possible that the GL26 tumor cell activation is signaling through TLRs or at least through downstream signaling molecule MyD88. Therefore, primary dendritic cells from MyD88−/− and Wild-type controls were isolated and exposed to GL26 lysate and TLR ligand LPS at 100 ng/ml or 10 ng/ml. The inventors believe that LPS activation in MyD88−/− DC will not show up-regulation of secreted IL-6 protein as measured by ELISA. […] Furthermore, no significant difference exists between MyD88−/− and wild-type derived BMDC exposed to brain lysate (FIG. 10).
Primary BMDCs were isolated from the bone marrow of femurs of euthanized MyD88−/− and their +/+ littermate controls as described above. BMDCs were activated using 1) GL26 tumor lysate alone; 2) TLR ligands (Pam3cys (50 μg/ml) or LPS (50 ng/ml) or CpG ODN (5 μM) and tumor lysate for each; 3) Treatment of DCs with brain lysate alone may also serves as a control condition.

As for Pam3cys, the IL-12 protein production entry with BMDC is listed as “relatively limited increases”.
As for lipopolysaccharide [LPS], the “TNF-alpha protein by ELISA” value in experiment [1] (MyD88−/− DC) is “no up-regulation”; in experiment [1] (wild-type DCs, compared to controls), “significant up-regulations”. Moreover, the “IL-6 secreted protein levels by ELISA” value in the experiment with primary BMDC was “reduced”.
